According to patent US9902722B2, “Biaryl kinase inhibitors” (BRISTOL-MYERS SQUIBB COMPANY, priority 2014, dated 2018):

Target: GST-Xa-hAAK1 (Homo sapiens (Human), UniProt Q2M2I8)
Assay: AAK1 Kinase Assay;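 further: each compound tested across an eleven-point concentration series, with IC50 obtained through non-linear regression fitting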
Assay type: biochemical
Conditions: bacterially expressed GST-Xa-hAAK1 3.5 nM; ATP 22 μM; peptide substrate 1.5 μM; 3 hours at room temperature; Caliper LabChip 3000

Sequence of GST-Xa-hAAK1 (Q2M2I8 whole entry): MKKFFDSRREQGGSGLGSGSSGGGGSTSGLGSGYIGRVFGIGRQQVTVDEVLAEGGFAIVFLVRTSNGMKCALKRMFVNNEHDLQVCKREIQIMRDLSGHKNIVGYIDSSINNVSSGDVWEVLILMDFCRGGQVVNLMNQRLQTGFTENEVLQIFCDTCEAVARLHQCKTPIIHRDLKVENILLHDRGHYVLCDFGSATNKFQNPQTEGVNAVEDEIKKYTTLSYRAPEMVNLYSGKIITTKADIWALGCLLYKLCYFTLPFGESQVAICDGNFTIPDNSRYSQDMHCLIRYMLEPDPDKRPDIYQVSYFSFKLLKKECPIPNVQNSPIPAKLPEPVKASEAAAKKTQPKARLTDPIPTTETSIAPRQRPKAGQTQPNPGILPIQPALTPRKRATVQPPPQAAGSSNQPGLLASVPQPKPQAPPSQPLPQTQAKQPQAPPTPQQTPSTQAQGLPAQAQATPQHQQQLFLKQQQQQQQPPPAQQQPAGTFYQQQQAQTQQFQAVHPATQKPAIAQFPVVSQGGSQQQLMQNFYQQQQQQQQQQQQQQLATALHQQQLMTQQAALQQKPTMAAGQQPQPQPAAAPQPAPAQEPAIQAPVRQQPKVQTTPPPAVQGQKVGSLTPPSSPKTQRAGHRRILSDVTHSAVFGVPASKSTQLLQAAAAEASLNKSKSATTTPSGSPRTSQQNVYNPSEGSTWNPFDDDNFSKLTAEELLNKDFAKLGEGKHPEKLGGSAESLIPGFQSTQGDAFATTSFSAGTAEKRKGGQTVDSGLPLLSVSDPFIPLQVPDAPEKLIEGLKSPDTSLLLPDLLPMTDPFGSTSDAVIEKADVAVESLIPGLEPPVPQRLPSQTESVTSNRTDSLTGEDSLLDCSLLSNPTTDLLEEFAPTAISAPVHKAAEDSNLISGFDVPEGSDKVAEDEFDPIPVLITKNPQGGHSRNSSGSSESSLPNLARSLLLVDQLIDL

SMILES	IC50 [nM]
CC(C)C[C@](C)(N)COc1ccc(-c2ccnc3ccncc23)cc1C(F)(F)F [Example 85, (S)-1-(4-(1,6-naphthyridin-4-yl)-2-(trifluoromethyl)phenoxy)-2,4-dimethylpentan-2-amine]	0.32
CC(C)CC(C)(N)COc1c(F)cc(-c2ccnc3ccccc23)cc1Cl (stereo not shown) [Example 75, 1-(2-chloro-6-fluoro-4-(quinolin-4-yl)phenoxy)-2,4-dimethylpentan-2-amine]	34
CC(C)C[C@](C)(N)COc1ccc(-c2ccncc2F)cc1C(F)(F)F [Example 47, (S)-1-(4-(3-fluoropyridin-4-yl)-2-(trifluoromethyl)phenoxy)-2,4-dimethylpentan-2-amine]	0.77
CC(=O)Nc1cc(-c2ccc(OC[C@@H](N)CC(C)C)c(C(F)(F)F)c2)ccn1 [Example 5, (S)—N-(4-(4-((2-amino-4-methylpentyl)oxy)-3-(trifluoromethyl)phenyl)pyridin-2-yl)acetamide]	0.5
CC(=O)Nc1cc(-c2ccc(OC[C@@](C)(N)CC(C)C)c(OC(F)(F)F)c2)ccn1 [Example 25, (S)—N-(4-(4-((2-amino-2,4-dimethylpentyl)oxy)-3-(trifluoromethoxy)phenyl)pyridin-2-yl)acetamide]	1
COC(=O)Nc1cc(-c2cc(C)c(OC[C@@](C)(N)CC(C)C)cn2)ccn1 [Example 68, (S)-methyl (5-((2-amino-2,4-dimethylpentyl)oxy)-4-methyl-[2,4′-bipyridin]-2′-yl)carbamate]	2.6
COC(=O)Nc1cc(-c2ccc(OC[C@@](C)(N)CC(C)C)c(OC(F)(F)F)c2)ccn1 [Example 26, (S)-methyl (4-(4-((2-amino-2,4-dimethylpentyl)oxy)-3-(trifluoromethoxy)phenyl)pyridin-2-yl)carbamate]	0.69
CC(=O)Nc1cc(-c2ccc(OC[C@@H](N)CC(C)C)c(F)c2)ccn1 [Example 1, (S)—N-(4-(4-((2-amino-4-methylpentyl)oxy)-3-fluorophenyl)pyridin-2-yl)acetamide]	2.7
CC(C)C[C@](C)(N)COc1ncc(-c2ccnc3cc(F)cc(F)c23)cc1C#N [Example 77, (S)-2-((2-amino-2,4-dimethylpentyl)oxy)-5-(5,7-difluoroquinolin-4-yl)nicotinonitrile]	0.92
COC(=O)Nc1cc(-c2ccc(OC[C@@](C)(N)CC(C)C)c(CO)c2)ccn1 [Example 32, (S)-methyl (4-(4-((2-amino-2,4-dimethylpentyl)oxy)-3-(hydroxymethyl)phenyl)pyridin-2-yl)carbamate]	4.5
CC(=O)Nc1cc(-c2cc(F)c(OC[C@@H](N)CC(C)C)cc2F)ccn1 [Example 12, (S)—N-(4-(4-((2-amino-4-methylpentyl)oxy)-2,5-difluorophenyl)pyridin-2-yl)acetamide]	1.6
Cc1cc(-c2ccc(OC[C@@](C)(N)CC(C)C)c(F)c2)ccn1 [Example 91, (S)-1-(2-fluoro-4-(2-methylpyridin-4-yl)phenoxy)-2,4-dimethylpentan-2-amine]	12.1
Cc1cc(-c2ccc(OC[C@@](C)(N)CC(C)C)c(C)c2)ccn1 [Example 90, (S)-2,4-dimethyl-1-(2-methyl-4-(2-methylpyridin-4-yl)phenoxy)pentan-2-amine]	2.6
CC(=O)Nc1cc(-c2ccc(OC[C@@](C)(N)CC(C)C)c(C(F)(F)F)c2)ccn1 [Example 19, (S)—N-(4-(4-((2-amino-2,4-dimethylpentyl)oxy)-3-(trifluoromethyl)phenyl)pyridin-2-yl)acetamide]	0.36
COC(=O)Nc1cc(-c2ccc(OCC(C)(N)CC(C)C)c(Cl)c2)ccn1 (stereo not shown) [Example 29, methyl (4-(4-((2-amino-2,4-dimethylpentyl)oxy)-3-chlorophenyl)pyridin-2-yl)carbamate]	0.67
CC(=O)Nc1cccc(-c2ccc(OC[C@](C)(N)CC(C)C)c(C)c2)c1 [Example 251]	1100
CC(C)C[C@](C)(N)COc1ccc(-c2ccnc(F)c2)cc1C#N [Example 94, (S)-2-((2-amino-2,4-dimethylpentyl)oxy)-5-(2-fluoropyridin-4-yl)benzonitrile]	4.7
CC(C)C[C@](C)(N)COc1ccc(-c2ccnc3cc(C#N)ccc23)cc1C(F)(F)F [Example 89, (S)-4-(4-((2-amino-2,4-dimethylpentyl)oxy)-3-(trifluoromethyl)phenyl)quinoline-7-carbonitrile]	0.66

The next lines start with the values.

IC50 [nM]	SMILES
197	CC(C)C[C@](C)(N)COc1ccc(C2=CCOCC2)cc1C(F)(F)F [Example 215, (S)-1-(4-(3,6-dihydro-2H-pyran-4-yl)-2-(trifluoromethyl)phenoxy)-2,4-dimethylpentan-2-amine]
0.59	CC(C)C[C@](C)(N)COc1ncc(-c2ccnc3ccccc23)cc1C(F)(F)F [Example 219, (S)-2,4-dimethyl-1-((5-(quinolin-4-yl)-3-(trifluoromethyl)pyridin-2-yl)oxy)pentan-2-amine]
2.9	CC(C)C[C@](C)(N)COc1ncc(-c2ccnc(Cl)c2)cc1C(F)F [Example 193, (S)-1-((2′-chloro-5-(difluoromethyl)-[3,4′-bipyridin]-6-yl)oxy)-2,4-dimethylpentan-2-amine]
0.36	CC(C)C[C@](C)(N)COc1cnc(-c2ccnc3ccc(F)cc23)cc1Cl [Example 235, (S)-1-((4-chloro-6-(6-fluoroquinolin-4-yl)pyridin-3-yl)oxy)-2,4-dimethylpentan-2-amine]
1.2	CC(C)C[C@](C)(N)COc1ncc(-c2ccnc3cc(F)ccc23)cc1Cl [Example 190, (S)-1-((3-chloro-5-(7-fluoroquinolin-4-yl)pyridin-2-yl)oxy)-2,4-dimethylpentan-2-amine]
0.74	Cc1cc(-c2ccnc3cc(Cl)ccc23)cnc1OC[C@@](C)(N)CC(C)C [Example 225, (S)-1-((5-(7-chloroquinolin-4-yl)-3-methylpyridin-2-yl)oxy)-2,4-dimethylpentan-2-amine]
1.8	CCc1cc(-c2cc(C(F)F)c(OC[C@@](C)(N)CC(C)C)cn2)ccn1 [Example 141, (S)-1-((4-(difluoromethyl)-2′-ethyl-[2,4′-bipyridin]-5-yl)oxy)-2,4-dimethylpentan-2-amine]
4.4	CC(C)C[C@](C)(N)COc1cnc(-c2ccnc3ccc(OC(F)(F)F)cc23)cc1C(F)F [Example 134, (S)-1-((4-(difluoromethyl)-6-(6-(trifluoromethoxy)quinolin-4-yl)pyridin-3-yl)oxy)-2,4-dimethylpentan-2-amine]
1.4	CC(C)C[C@](C)(N)COc1ccc(-c2ccnc3cc(F)cc(F)c23)nc1C(F)F [Example 129]
1.3	Cc1cc(-c2cc(C(F)(F)F)c(OC[C@@](C)(N)CC(C)C)cn2)ccn1 [Example 144, (S)-2,4-dimethyl-1-((2′-methyl-4-(trifluoromethyl)-[2,4′-bipyridin]-5-yl)oxy)pentan-2-amine]
21	CC(C)C[C@@](C)(N)COc1cnc(-c2ccnc3ccccc23)cc1C(F)(F)F [Example 165, (R)-2,4-dimethyl-1-((6-(quinolin-4-yl)-4-(trifluoromethyl)pyridin-3-yl)oxy)pentan-2-amine]
1.1	Cc1cc(-c2ccnc3cc(F)cc(F)c23)cnc1OC[C@@](C)(N)CC(C)C [Example 224, (S)-1-((5-(5,7-difluoroquinolin-4-yl)-3-methylpyridin-2-yl)oxy)-2,4-dimethylpentan-2-amine]
3.2	Cc1cc(-c2ccc(OC[C@@](C)(N)CC(C)C)c(C(F)F)n2)ccn1 [Example 119, (S)-1-((6-(difluoromethyl)-2′-methyl-[2,4′-bipyridin]-5-yl)oxy)-2,4-dimethylpentan-2-amine]
1.9	CC(C)C[C@](C)(N)COc1cnc(-c2ccnc3cc(C(F)(F)F)ccc23)cc1Cl [Example 242, (S)-1-((4-chloro-6-(7-(trifluoromethyl)quinolin-4-yl)pyridin-3-yl)oxy)-2,4-dimethylpentan-2-amine]
3.5	CC(C)C[C@H](N)COc1ccc(-c2ccnc3ccccc23)cc1-c1ccno1 [Example 110, (S)-1-(2-(isoxazol-5-yl)-4-(quinolin-4-yl)phenoxy)-4-methylpentan-2-amine]
19	COC(=O)Nc1nccc(-c2ccc(OC[C@@](C)(N)CC(C)C)c(C)n2)c1F [Example 157, (S)-methyl (5-((2-amino-2,4-dimethylpentyl)oxy)-3′-fluoro-6-methyl-[2,4′-bipyridin]-2′-yl)carbamate]
150	Cc1cc(-c2cc(C(F)F)c(OC[C@@](C)(O)CC(C)C)cn2)ccn1 [Example 178, (S)-1-((4-(difluoromethyl)-2′-methyl-[2,4′-bipyridin]-5-yl)oxy)-2,4-dimethylpentan-2-ol]
31	CC(C)C[C@](C)(N)COc1ncc(-c2ccnc3cc(C#N)ccc23)cc1F [Example 99, (S)-4-(6-((2-amino-2,4-dimethylpentyl)oxy)-5-fluoropyridin-3-yl)quinoline-7-carbonitrile]
57	COC(=O)Nc1cc(-c2ccc(OC[C@@](C)(N)CC(C)C)c(C)n2)c(F)cn1 [Example 155, (S)-methyl (5-((2-amino-2,4-dimethylpentyl)oxy)-5′-fluoro-6-methyl-[2,4′-bipyridin]-2′-yl)carbamate]
1100	Cc1cc(-c2ccc(OC[C@@](C)(N)CC(C)C)c(C(F)F)n2)cnn1 [Example 163, (S)-1-((2-(difluoromethyl)-6-(6-methylpyridazin-4-yl)pyridin-3-yl)oxy)-2,4-dimethylpentan-2-amine]
0.2	COC(=O)Nc1cc(-c2cnc(OC[C@@](C)(N)CC(C)C)c(C(F)F)c2)ccn1 [Example 196, (S)-methyl (6-((2-amino-2,4-dimethylpentyl)oxy)-5-(difluoromethyl)-[3,4′-bipyridin]-2′-yl)carbamate]
0.99	CC(C)C[C@](C)(N)COc1ncc(-c2ccnc3ccc(F)cc23)cc1Cl [Example 191, (S)-1-((3-chloro-5-(6-fluoroquinolin-4-yl)pyridin-2-yl)oxy)-2,4-dimethylpentan-2-amine]
